Measurements: patent US6818656B2, “Method and composition for treatment of irritable bowel disease” (University of Florida, priority 2001, dated 2004)
Like-named read-outs stand apart in the source and are kept apart here.

How the values were obtained:
[1] = tested on: castor oil-induced diarrhea; settings: cited from earlier work; for neurotoxicity in rats at subtherapeutic doses: doses equivalent to a 5 mg/kg dose of DEHSPM
[2] = tested on: stress-induced fecal output; test: Psychological stress-induced (water avoidance) IBS model, PO administration by gavage; assay type: in vivo, rat; settings: for oral activity against stress-induced fecal output (in words): PO gavage, non-fasted rats, 11.6-115.6 μmol/kg; for Stool Output: 6-hr collection; for % Reduction: vs stressed controls, 6 hr
Description: (§1) For drug preparation and administration, the compounds were put into solution with sterile normal saline and sonicated briefly, if necessary. The drugs were made up at concentrations such that the rats received the drugs PO or SC at the rate of 1 cc per kilogram. Mice received the CHX(3,4,3)-trans IP at 1 cc per 100 grams. The solutions were made fresh the day of the study. Control animals received an equivalent amount of saline PO or SC.
(§2) Animal care and experimental procedures were approved by the Institutional Animal Care and Use Committee. Male Sprague-Dawley rats (250-350 g, Harlan Sprague-Dawley, Indianapolis, Ind.) were housed in polycarbonate cages in a temperature- and humidity-controlled room with a 12-hour light/dark cycle. The experiments were performed at the same time of the day to decrease diurnal variability. A typical experiment involved 20 rats: 5 saline-treated controls and 5 pretreated with polyamine analogues at each of three doses as either a SC injection or a PO gavage. The rats in the SC studies and in one set of experiments involving PO administration were allowed ad libitum access to a standard rodent diet and tap water until the morning of the experiment. Stress was initiated 30 minutes post drug as described below. In another set of experiments involving PO administration, the animals were fasted overnight but were allowed free access to water. The animals were then stressed from ½ h to 2 h post-drug (data not shown). In a final experiment, non-stressed control rats were injected with saline SC and housed in individual polycarbonate cages. The fecal output (number of pellets) of the stressed and unstressed animals was recorded at 30-min intervals for a 6-h period, during which they received no food or water.
(§3) Once the drug had been administered, the animals were housed individually in polycarbonate cages containing a clear 70×50 mm Pyrex crystallization dish (Fisher, Pittsburgh, Pa.) inverted in the center and held in place with vacuum grease. To initiate the stress, water was added to each cage to a depth of at least 4.5 cm, i.e., within 0.5 cm of the top of the Pyrex dish. To avoid contact with water, the rats stand on the glass dish for the 6 h of the study. Stool output was expressed as the total number of fecal pellets excreted over the 6-h collection period. Percent reduction was calculated by dividing the mean value from the treated animals (T) by the mean value from the control animals (C), subtracting the resulting quotient from 1.0, and multiplying by 100 [i.e., (1.0−T/C)×100].
(§4) A one-tailed t-test assuming unequal variance was performed on the stool output data of the treated vs control (0 mg/kg) animals for each compound. A value of P<0.05 was considered significant.
Because an orally active compound would be desirable for the treatment of IBS, selected analogues utilizing oral administration in the same model were assessed. In the initial studies animals were utilized that had been fasted overnight. Rodents were then given the drug of interest PO by gavage and stressed ½ h, 1 h, or 2 h post-drug. Unfortunately, because of the low baseline stool output in fasted control rats, the reductions in fecal output observed upon drug administration cannot be reported with any confidence (data not shown). Thereafter, only non-fasted animals were employed and were given the agents by gavage at doses of 11.6, 23.2, 57.8, or 115.6:mol/kg 30 minutes before initiating the stress. […] At doses of 11.6 and 23.2:mol/kg, CHX(3,4,3)-trans reduced stooling by about 80% (P=0.001 and <0.001, respectively). DEHSPM was effective at a dose of […]:mol/kg (40% diminution of fecal output; P<0.01), and DE(5,4,5) was active at doses of 23.2 and 57.8:mol/kg (55 and 73% reductions in fecal output, respectively; P<0.001 for both doses).

[3] = tested on: stress-induced fecal output; test: Psychological stress-induced (water avoidance) IBS model, SC administration; assay type: in vivo; settings: for Stool Output: 6-h collection
Description: as §1
as §2, with “The animals were then stressed from ½ h to 2 h post-drug (data not shown).” left out
as §3, with “To” for “Once the drug had been administered, the animals were housed individually in polycarbonate cages containing a clear 70×50 mm Pyrex crystallization dish (Fisher, Pittsburgh, Pa.) inverted in the center and held in place with vacuum grease. To”
as §4
The psychological stress-induced IBS model involves subjecting the rats to an aversive stimulus (water) and observing the increase in fecal output over a period of time. […] Control rats received an equivalent amount of saline SC.

[4] = Acute toxicity assessment, single intraperitoneal injection; assay type: in vivo; settings: toxic doses, mice
Method: For the acute toxicity assessment the CHX(3,4,3)-trans was administered to female CD-1 mice (Charles River, Wilmington, Mass.) as a single intraperitoneal (IP) injection. The animals were carefully observed post-dosing and were scored 2 h after administration of the drug.
as §1

[5] = SC, cited from earlier work
diarrhea = settings: animal models and clinic; cited from earlier work
[6] = mice; N-de-ethylated metabolite of DEHSPM; cited from earlier work
[7] = dog; relative to 2-3 weeks in mice; cited from earlier work
[8] = tested on: constipation-predominant IBS; settings: eight patients, 16 mg three times a week, eight weeks; cited from earlier work
[9] = 2.3 μmol/kg SC, stress 30 min post drug
[10] = Rattus norvegicus, 23.2 μmol/kg SC, vs stressed controls, 6 h, read-out: % Reduction
[11] = Rattus norvegicus, 11.6 μmol/kg SC, vs stressed controls, 6 h, read-out: % Reduction
[12] = Rattus norvegicus, 57.8 μmol/kg SC, vs stressed controls, 6 h, read-out: % Reduction

For `CCNCCCNCCCNCCCNCC` [Compound 1, N^1,N^11-diethylnorspermine], the “activity in castor oil-induced diarrhea model (in words)” value ([1]; rodent, listed as DENSPM) is listed as “ineffective in reducing stooling”, the “oral activity against stress-induced fecal output (in words)” value (from here on “oral activity”) [2] is listed as “only CHX(3,4,3)-trans, DEHSPM, and DE(5,4,5) showed any activity at all” and the “Stool Output” value [3, 9] is listed as 17.4 ± 5.1 number of fecal pellets. The “Stool Output” value ([3]; 11.6 μmol/kg SC) was 15.2 ± 4.5 number of fecal pellets, the “Stool Output” value ([3]; 57.8 μmol/kg SC) was 13.4 ± 5.9 number of fecal pellets and the “activity at diminishing stress-induced fecal output (in words)” value ([3]; SC administration to stressed rats, listed as DENSPM) was “completely ineffective”.
For `CCNCCCNCCCCNCCCNCC` [Compound 3, N^1,N^12 diethylspermine], the “oral activity” value [2] was “only CHX(3,4,3)-trans, DEHSPM, and DE(5,4,5) showed any activity at all”, the “signs of acute toxicity in mice” value [4] was “generalized depression with respiratory failure” and the “Stool Output” value ([3]; 23.2 μmol/kg SC) was 12.5 ± 2.9 number of fecal pellets. For the same compound, the “Stool Output” value ([3]; 35.4 μmol/kg SC) was 9.0 ± 6.3 number of fecal pellets, the “Stool Output” value ([3]; 61 μmol/kg SC) was 2.8 ± 2.7 number of fecal pellets and the inhibition in vivo at 23.2 µmol/kg [3, 10] was 35%. It also gave an inhibition in vivo at 35.4 µmol/kg ([3]; Rattus norvegicus, 35.4 μmol/kg SC, vs stressed controls, 6 h, read-out: % Reduction) of 53% and an inhibition in vivo at 61 µmol/kg ([3]; Rattus norvegicus, 61 μmol/kg SC, vs stressed controls, 6 h, read-out: % Reduction) of 90%.
For `CC(C)NCCCNCCCCNCCCNC(C)C` [Compound 6, N^1,N^12 diisopropylspermine], the “oral activity” value [2] was “only CHX(3,4,3)-trans, DEHSPM, and DE(5,4,5) showed any activity at all”, the “Stool Output” value ([3]; 5.8 μmol/kg SC) was 4.6 ± 2.3 number of fecal pellets and the “Stool Output” value ([3]; 11.6 μmol/kg SC) was 1.6 ± 1.8 number of fecal pellets. The inhibition in vivo at 5.8 µmol/kg ([3]; Rattus norvegicus, 5.8 μmol/kg SC, vs stressed controls, 6 h, read-out: % Reduction) was 70% and the inhibition in vivo at 11.6 µmol/kg [3, 11] was 90%.
In the case of `CC(C)CNCCCNCCCCNCCCNCC(C)C` [Compound 7], the “neurotoxicity in rats at subtherapeutic doses” value [1] is given as “Signs of neurotoxicity”, the “Stool Output” value [3, 9] is given as 15.9 ± 5.7 number of fecal pellets and the “Stool Output” value ([3]; 11.6 μmol/kg SC) is given as 12.2 ± 2.7 number of fecal pellets. The “toxic effects observed in stressed rats” value ([3]; 23.2 μmol/kg SC) was “^gToxic effects were evident, including huddling in the corner of the cage”, the “Stool Output” value ([3]; 23.2 μmol/kg SC) was 6.6 ± 3.1 number of fecal pellets and the inhibition in vivo at 11.6 µmol/kg [3, 11] was 34%. The inhibition in vivo at 23.2 µmol/kg [3, 10] was 64%.
In the case of `CC(C)CCNCCCNCCCCNCCCNCCC(C)C` [Compound 9], the “neurotoxicity in rats at subtherapeutic doses” value [1] is listed as “Signs of neurotoxicity”, the “Stool Output” value [3, 9] is listed as 18.2 ± 2.8 number of fecal pellets and the “Stool Output” value ([3]; 11.6 μmol/kg SC) is listed as 14.6 ± 4.5 number of fecal pellets. The “toxic effects observed in stressed rats” value ([3]; 57.8 μmol/kg SC) was “^hDue to severe CNS toxicity, 3 of the 5 rats were removed after 4-4.5 h; neither of the remaining 2 rats had any stool output for the remainder of the study”, the “Stool Output” value ([3]; 57.8 μmol/kg SC) was 0 ± 0 number of fecal pellets and the “toxic effects observed in stressed rats” value ([3]; 57.8 μmol/kg SC, listed as DIPESPM) was “severe neurotoxicity”. For the same compound, the inhibition in vivo at 57.8 µmol/kg [3, 12] was 100%.
For `CCNCCCCNCCCCNCCCCNCC` [Compound 13, N^1,N^14-diethylhomospermine], the “time at which arrhythmia was apparent in 6-lead EKG” value ([5]; dogs, 2 mg/kg daily) is given as “as early as three days”, the cardiac effect ([5]; three dogs, 2 mg/kg daily for 11-17 days) is given as “ventricular bigeminies” and the “antidiarrheal activity (in words)” value (diarrhea) is given as “very potent antidiarrheal”. The “Stool Output” value ([2]; 115.6 μmol/kg PO) was 10.6 ± 1.8 number of fecal pellets, the “% Reduction” value ([2]; 115.6 μmol/kg PO) was 40% and the “diminution of fecal output” value ([2]; 15.6 :mol/kg PO) was 40%. The “signs of acute toxicity in mice” value [4] was “generalized depression with respiratory failure”, the “Stool Output” value ([3]; 11.6 μmol/kg SC) was 2.1 ± 2.1 number of fecal pellets and the “Stool Output” value ([3]; 57.8 μmol/kg SC) was 0 ± 0 number of fecal pellets. For the same compound, the inhibition in vivo at 11.6 µmol/kg [3, 11] was 89% and the inhibition in vivo at 57.8 µmol/kg [3, 12] was 100%.
For `CCNCCCCCNCCCCNCCCCCNCC` [Compound 14, N,N′-bis[5-(ethylamino)pentyl]-1,4-butanediamine], the “Stool Output” value ([2]; 11.6 μmol/kg PO) was 15.2 ± 8.5 number of fecal pellets, the “Stool Output” value ([2]; 23.2 μmol/kg PO) was 8.6 ± 4.9 number of fecal pellets and the “% Reduction” value ([2]; 23.2 μmol/kg PO) was 55%. The “Stool Output” value ([2]; 57.8 μmol/kg PO) was 5.1 ± 3.1 number of fecal pellets, the “% Reduction” value ([2]; 57.8 μmol/kg PO) was 73% and the “Stool Output” value [3, 9] was 13.2 ± 6.3 number of fecal pellets. The “Stool Output” value ([3]; 11.6 μmol/kg SC) was 2.2 ± 3.3 number of fecal pellets, the “Stool Output” value ([3]; 57.8 μmol/kg SC) was 0 ± 0 number of fecal pellets and the inhibition in vivo at 11.6 µmol/kg [3, 11] was 88%. It also gave an inhibition in vivo at 57.8 µmol/kg [3, 12] of 100%.
For `C(CCNCCC1CCNCC1)CNCCC1CCNCC1` [Compound 15, N,N′-bis[2-(4-piperidinyl)ethyl]-1,4-diaminobutane], the “oral activity” value [2] was “only CHX(3,4,3)-trans, DEHSPM, and DE(5,4,5) showed any activity at all”, the “Stool Output” value ([3]; 2.32 μmol/kg SC) was 8.8 ± 1.6 number of fecal pellets and the “Stool Output” value ([3]; 11.57 μmol/kg SC) was 8.2 ± 3.1 number of fecal pellets. For the same compound, the “Stool Output” value ([3]; 57.8 μmol/kg SC) was 2.0 ± 2.0 number of fecal pellets and the inhibition in vivo at 57.8 µmol/kg [3, 12] was 82%.
In the case of `NCCCCNCCCCNCCCCN` [HSPM, homospermine], the half-life [6] is given as 2-3 weeks and the half-life [7] is given as “even longer”.
In the case of `C=C1CCC2(O)C3Cc4ccc(OC5OC(C(=O)O)C(O)C(O)C5O)c5c4C2(CCN3CC2CC2)C1O5` (stereo not drawn) [Nalmefene glucuronide], the “abdominal pain or bloating” value [8] is listed as “did not reduce abdominal pain or bloating” and the “transit time and stool frequency” value [8] is listed as “decreased transit time and increased stool frequency”.
